Source: US10383838B2, “Concentrated liquid diet” (The Nisshin OilliO Group, Ltd., priority 2008, dated 2019)

Test system: gastric mucosa of rat
Experiment: Test for investigating irritation of gastric mucosa in rat
Type: in vivo, Wistar rats
Conditions: oral after fasting 18 hrs, dose 2 g/kg BW, stomach observed 1 hour after administration
Description: Five male 10-week old Wistar rats having a body weight of about 200 g (Japan SLC, Inc.) as one test group were subjected to tests by administration. […] The amount of the triglyceride administered was 2 g per kg of body weight. After placing at rest for 1 hour following the administration, an incision was made in the abdomen under anesthesia, and the stomach was extirpated. Then, the extirpated stomach was incised along the greater curvature, and the gastric mucosa was washed with physiological saline and visually observed, with use of a loupe as needed. It should be noted that evaluation in connection with the irritation of gastric mucosa was made in accordance with a method described in a document (Yakugaku Zasshi 89 (8): 1114-1118, 1978). The criteria of evaluation are shown below.
(−): Nine or less areas of patchy redness found.
(+): Ten or more areas of patchy redness found, and sum total of each length of erosion being no greater than 2 mm.
(++): Twenty or more areas of patchy redness found, and sum total of each length of erosion being no greater than 10 mm.
(+++): Sum total of each length of ulcer, or erosion being no less than 10 mm.
It is to be noted that when evaluation was made as (−), the number of areas of patchy redness was counted.

SMILES: CCO [Positive Control Group, ethanol]
- Irritation of gastric mucosa: (+++) (Sum total of each length of ulcer, or erosion being no less than 10 mm.)
